One may read the fraction remaining as the share of the starting amount still present when the sample was taken.

Common to all, as to type: in vitro ADME
Series [1] is described as follows: Serum stability, incubation with human serum. Particulars: incubation for 24 h with human serum (FIG. 16). How it is done: Serum stability of compounds L1, L2, and L3 in comparison to their branched macrocyclic compounds B1, B2, and B3, the cyclic peptide C1, and the linear C- and N-terminally unmasked derivative R1 (see FIG. 15) was tested by incubation for 24 h with human serum (FIG. 16).

A further series relates to trypsin. The experiment in a line: Proteolytic stability, incubation with trypsin. Particulars: incubation for 24 h with trypsin (FIG. 13). How it is done: (§1) Proteolytic stability of lasso compounds L1, L2, and L3 in comparison to their branched macrocyclic compounds B1, B2, and B3 and the cyclic peptide analogue C1 (see FIG. 11) was tested in separate experiments by incubation for 24 h with chymotrypsin (FIG. 12), trypsin (FIG. 13) and proteinase K (FIG. 14).

The next series concerns the target proteinase K (Parengyodontium album, UniProt P06873). Briefly: Proteolytic stability, incubation with proteinase K. Conditions: incubation for 24 h with proteinase K (FIG. 14). How it is done:
as §1

Numbered stars: 1 amine (or outer) side, 2 acyl side, 3 side chain; on linkers, the order of the positions; unused ones are H or OH. Square brackets hold non-standard residues; d marks the D form. Peptide text beside a SMILES is read from it. * marks the point of attachment. ξ: configuration not given here. X1 = O=C(NCCOCCN(CC(=O)[*:2])[*:1])c1ccc(F)cc1; X2 = c1cc2c(cc1CCN*)OCCOCCOCCOCCOCCOCCO2; Thr(3ξ) = CC(O)[C@H](N)C(=O)O; GABA = NCCCC(=O)O; Cam = NC(=O)C*

proteinase K, sequence (P06873 106-384): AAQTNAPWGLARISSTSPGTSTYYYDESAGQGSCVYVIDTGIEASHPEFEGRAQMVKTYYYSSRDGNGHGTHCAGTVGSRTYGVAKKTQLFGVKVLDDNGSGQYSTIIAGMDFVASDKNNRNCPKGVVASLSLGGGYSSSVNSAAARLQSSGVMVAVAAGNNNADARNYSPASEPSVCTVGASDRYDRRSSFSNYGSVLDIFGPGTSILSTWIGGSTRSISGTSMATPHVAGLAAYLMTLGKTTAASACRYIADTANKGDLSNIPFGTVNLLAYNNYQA

For `CC(C)C[C@H](NC(=O)[C@@H](NC(=O)[C@H](CCCCN)NC(=O)[C@@H](Cc1c[nH]c2ccccc12)NC(=O)[C@H](Cc1ccccc1)NC(=O)[C@H](CSCC(N)=O)NC(=O)CNC(=O)[C@H](Cc1ccccc1)NC(=O)CNCCOCCNC(=O)c1ccc(F)cc1)[C@@H](C)O)C(=O)NCCCC(=O)NCCc1ccc2c(c1)OCCOCCOCCOCCOCCOCCO2` [L1] (H-[X1]FGC(Cam)F[dW]KTL[GABA]-X2), the share remaining at 24 h in series [1] (read-out: remaining compound at the final time point) was roughly 70%.

For `CC(C)C[C@@H]1NC(=O)[C@H](C(C)O)NC(=O)[C@H](CCCCN)NC(=O)[C@@H](Cc2c[nH]c3ccccc23)NC(=O)[C@H](Cc2ccccc2)NC(=O)[C@H](CSCC(N)=O)NC(=O)CNC(=O)[C@H](Cc2ccccc2)NC(=O)CCCNC1=O` (stereo partly shown) [C1] (cyclo(C(Cam)F[dW]K[Thr(3ξ)]L[GABA]FG)), the “stability versus trypsin degradation” value in the series with trypsin was “similarly stable as L1-L3”. For the same compound, the “stability versus proteinase K degradation” value on proteinase K is recorded as “similarly stable as L1-L3”.

Turning to `CC(C)C[C@H](NC(=O)[C@@H](NC(=O)[C@H](CCCCN)NC(=O)[C@@H](Cc1c[nH]c2ccccc12)NC(=O)[C@H](Cc1ccccc1)NC(=O)[C@H](CSCC(N)=O)NC(=O)CNC(=O)[C@@H](N)Cc1ccccc1)[C@@H](C)O)C(=O)O` [R1] (H-FGC(Cam)F[dW]KTL-OH), the “degradation in human serum (in words)” value in series [1] is “degraded rapidly and completely”.

Source of the values: patent US20200190135A1, “LASSO STRUCTURES AND THEIR SYNTHESIS” (ChromaCon AG, priority 2016, published 2020).
